One data set in a line: in vitro. The note with it: PAMPA. (In general: The PAMPA barrier holds no transporters, so it reflects passive diffusion.)

Molecules are shown by their SMILES. Converted amounts (≈) assume the structure as drawn.

In the case of `COc1cccc([C@@H](C)NC(=O)c2ccc(-c3ccncn3)cc2N2CCC[C@@H](CN)C2)c1`, the Papp in the data set “in vitro” was found to be 2.5 ×10⁻⁶ cm/s. In addition, in “physchem”, the solubility came to 51.2 µM (≈ 22.8 µg/mL).
For `COc1cccc([C@@H](C)NC(=O)c2ccc(-c3ccncn3)cc2N2CC[C@@H](CN)C2)c1` the same measures were 1.4 ×10⁻⁶ cm/s and 63.9 µM (≈ 27.6 µg/mL).
For `COc1cccc([C@@H](C)NC(=O)c2ccc(-c3ccncn3)cc2N2CCC[C@H](CN)C2)c1` the same measures were 2.6 ×10⁻⁶ cm/s and 65.5 µM (≈ 29.2 µg/mL).

What is called Papp is the rate of passage across a membrane or cell layer, normalised by area and donor concentration. Higher therefore signals ready permeation. The solubility is the dissolved amount per volume that the medium holds. Higher therefore signals a readily soluble substance.

For the origin of these results see ChEMBL document CHEMBL4325872, “Identification of Selective Dual ROCK1 and ROCK2 Inhibitors Using Structure-Based Drug Design” (J Med Chem, 2018).
